“And” between values parts separate entries of the source, which are not always exact repeats. Identical values can stand only once. Toxic doses and inconclusive results are not listed. How the source made its calls: active means survival T/C of 150% or more; inactive means T/C below 125% in these data.
Tested on: P388 leukemia ip, CD2F1 mice, survival T/C
Assay: NCI In Vivo Anticancer Drug Screen. Data for tumor model P388 Leukemia (intraperitoneal) in CD2F1 (CDF1) mice
Conditions: endpoint: median survival time, higher = longer survival
How it was run: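 Mice carrying the transplanted tumor received test compound or vehicle. Survival was recorded in each group, and the value is the treated-group measurement divided by that of the vehicle-treated control group.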

[1] = dose: 100.0 mg/kg/injection, schedule: Q01DX009 (ip), vehicle: saline with Tween-80
[2] = dose: 200.0 mg/kg/injection, schedule: Q01DX009 (ip), vehicle: saline with Tween-80
[3] = dose: 25.0 mg/kg/injection, schedule: Q01DX009 (ip), vehicle: saline with Tween-80
[4] = dose: 50.0 mg/kg/injection, schedule: Q01DX009 (ip), vehicle: saline with Tween-80
[5] = dose: 12.5 mg/kg/injection, schedule: Q01DX009 (ip), vehicle: water
[6] = dose: 25.0 mg/kg/injection, schedule: Q01DX009 (ip), vehicle: water
[7] = dose: 100.0 mg/kg/injection, schedule: Q01DX009 (ip), vehicle: water
[8] = dose: 50.0 mg/kg/injection, schedule: Q01DX005 (ip), vehicle: saline with Tween-80
[9] = dose: 100.0 mg/kg/injection, schedule: Q01DX005 (ip), vehicle: saline with Tween-80
[10] = dose: 200.0 mg/kg/injection, schedule: Q01DX005 (ip), vehicle: saline with Tween-80

Measured: T/C

CN(C)CCCN=c1c2ccccc2n(C)c2[nH]c(=O)n(C)c(=O)c12
inactive: dose: 7.5 mg/kg/injection, schedule: Q01DX005 (ip), vehicle: saline 107 % of control | dose: 15.0 mg/kg/injection, schedule: Q01DX005 (ip), vehicle: saline 124 % of control | dose: 60.0 mg/kg/injection, schedule: Q01DX005 (ip), vehicle: saline 123 % of control

O=C(/C=C/C(=O)OCC(Cl)(Cl)Cl)OCC(Cl)(Cl)Cl
inactive: [1] 100 % of control | [2] 114 % of control | dose: 400.0 mg/kg/injection, schedule: Q01DX009 (ip), vehicle: saline with Tween-80 106 % of control

Nc1[nH]c(=O)ncc1CS(=O)(=O)O
inactive: dose: 50.0 mg/kg/injection, schedule: Q04DX002 (ip), vehicle: saline with Tween-80 97 % of control | dose: 100.0 mg/kg/injection, schedule: Q04DX002 (ip), vehicle: saline with Tween-80 108 % of control | dose: 200.0 mg/kg/injection, schedule: Q04DX002 (ip), vehicle: saline with Tween-80 107 % of control

CSCc1ccc(Cl)cc1N (tested in a mixture with another compound)
inactive: [3] 103 % of control | [4] 106 % of control | [1] 106 % of control

CCOC(=O)c1c[nH][nH]c1=O
inactive: [3] 95 % of control | [4] 93 % of control | dose: 100.0 mg/kg/injection, schedule: Q01DX001 (ip), vehicle: saline with Tween-80 98 % of control | [1] 101 % of control | dose: 200.0 mg/kg/injection, schedule: Q01DX001 (ip), vehicle: saline with Tween-80 106 % of control | [2] 100 % of control | dose: 400.0 mg/kg/injection, schedule: Q01DX001 (ip), vehicle: saline with Tween-80 94 % of control

O=NNc1cnc(-c2ccccc2)c(-c2ccccc2)n1
inactive: dose: 3.12 mg/kg/injection, schedule: Q01DX009 (ip), vehicle: water 103 % of control | dose: 6.25 mg/kg/injection, schedule: Q01DX009 (ip), vehicle: water 104 % of control | [5] 105 % of control and 111 % of control | [6] 116 % of control and 117 % of control | [7] 96 % of control

CCCCCCCCC[N+]1(CC)CCCCC1
inactive: dose: 3.12 mg/kg/injection, schedule: Q01DX009 (ip), vehicle: saline 121 % of control | dose: 6.25 mg/kg/injection, schedule: Q01DX009 (ip), vehicle: saline 121 % of control | dose: 12.5 mg/kg/injection, schedule: Q01DX009 (ip), vehicle: saline 86 % of control

CC(=O)OC1C=CC2OC2(COC(=O)c2ccccc2)C1OC(C)=O (stereo not drawn)
inactive: dose: 2.5 mg/kg/injection, schedule: Q01DX009 (ip), vehicle: Klucel (hydroxypropylcellulose) (HPC) 87 % of control | dose: 5.0 mg/kg/injection, schedule: Q01DX009 (ip), vehicle: Klucel (hydroxypropylcellulose) (HPC) 99 % of control | dose: 10.0 mg/kg/injection, schedule: Q01DX009 (ip), vehicle: Klucel (hydroxypropylcellulose) (HPC) 92 % of control | dose: 28.75 mg/kg/injection, schedule: Q01DX005 (ip), vehicle: saline + Tween-80 + alcohol 100 % of control | dose: 57.5 mg/kg/injection, schedule: Q01DX005 (ip), vehicle: saline + Tween-80 + alcohol 102 % of control | dose: 115.0 mg/kg/injection, schedule: Q01DX005 (ip), vehicle: saline + Tween-80 + alcohol 100 % of control | dose: 230.0 mg/kg/injection, schedule: Q01DX005 (ip), vehicle: saline + Tween-80 + alcohol 100 % of control

Nc1cccc(S(=O)(=O)N/N=C/C(=O)O)c1
inactive: [5] 111 % of control | [6] 116 % of control | dose: 50.0 mg/kg/injection, schedule: Q01DX009 (ip), vehicle: water 119 % of control | [7] 117 % of control

COc1cc(/C=C/Cc2cc3c(cc2O)OCO3)cc(OC)c1OC
inactive: dose: 60.0 mg/kg/injection, schedule: Q01DX005 (ip), vehicle: saline with Tween-80 95 % of control | dose: 120.0 mg/kg/injection, schedule: Q01DX005 (ip), vehicle: saline with Tween-80 90 % of control | dose: 240.0 mg/kg/injection, schedule: Q01DX005 (ip), vehicle: saline with Tween-80 89 % of control

COc1ccccc1NC(=O)CC(=O)N1N=C(C)C(N=Nc2ccc(I)cc2)C1=O (stereo not drawn)
inactive: [8] 95 % of control | [9] 100 % of control | [10] 92 % of control

C=C1CC[C@]2(C)CC[C@]3(C)C4=CC=C5C(=CC(=O)C(O)=C5C)[C@]4(C)CC[C@@]3(C)[C@@H]2C1
inactive: dose: 0.06 mg/kg/injection, schedule: Q01DX009 (ip), vehicle: saline with Tween-80 97 % of control | dose: 0.09 mg/kg/injection, schedule: Q01DX009 (ip), vehicle: none 93 % of control | dose: 0.12 mg/kg/injection, schedule: Q01DX009 (ip), vehicle: saline with Tween-80 103 % of control | dose: 0.19 mg/kg/injection, schedule: Q01DX009 (ip), vehicle: none 103 % of control | dose: 0.25 mg/kg/injection, schedule: Q01DX009 (ip), vehicle: saline with Tween-80 100 % of control and 103 % of control | dose: 0.5 mg/kg/injection, schedule: Q01DX009 (ip), vehicle: none 107 % of control and 98 % of control | dose: 0.5 mg/kg/injection, schedule: Q01DX009 (ip), vehicle: saline with Tween-80 103 % of control and 115 % of control | dose: 0.75 mg/kg/injection, schedule: Q01DX009 (ip), vehicle: none 103 % of control and 107 % of control | dose: 1.0 mg/kg/injection, schedule: Q01DX009 (ip), vehicle: none 110 % of control | dose: 1.0 mg/kg/injection, schedule: Q01DX009 (ip), vehicle: saline with Tween-80 112 % of control and 119 % of control | dose: 1.5 mg/kg/injection, schedule: Q01DX009 (ip), vehicle: none 105 % of control and 120 % of control and 98 % of control | dose: 2.0 mg/kg/injection, schedule: Q01DX009 (ip), vehicle: none 115 % of control and 120 % of control | dose: 3.0 mg/kg/injection, schedule: Q01DX009 (ip), vehicle: none 95 % of control

COC(=O)C[N+](=O)[O-]
inactive: dose: 50.0 mg/kg/injection, schedule: Q01DX009 (ip), vehicle: saline 103 % of control | dose: 100.0 mg/kg/injection, schedule: Q01DX009 (ip), vehicle: saline 99 % of control | dose: 200.0 mg/kg/injection, schedule: Q01DX009 (ip), vehicle: saline 110 % of control

COC(=O)/C=C1/C2C=CC(O2)C1C(=O)OC (stereo not drawn)
inactive: [8] 96 % of control | [9] 99 % of control | [10] 97 % of control

Cc1nc(Nc2c3ccccc3nc3ccccc23)sc1C
inactive: dose: 12.5 mg/kg/injection, schedule: Q04DX002 (ip), vehicle: distilled water + Tween-80 103 % of control | dose: 25.0 mg/kg/injection, schedule: Q04DX002 (ip), vehicle: distilled water + Tween-80 100 % of control | dose: 50.0 mg/kg/injection, schedule: Q04DX002 (ip), vehicle: distilled water + Tween-80 88 % of control | dose: 100.0 mg/kg/injection, schedule: Q04DX002 (ip), vehicle: distilled water + Tween-80 87 % of control | dose: 200.0 mg/kg/injection, schedule: Q04DX002 (ip), vehicle: distilled water + Tween-80 90 % of control | dose: 400.0 mg/kg/injection, schedule: Q04DX002 (ip), vehicle: distilled water + Tween-80 98 % of control

C/C=C1/CN2C3CC45c6ccccc6N(C)C4C2CC1C3C5O (stereo not drawn)
inactive: [8] 98 % of control | [9] 97 % of control

O=C(O)CCNCCC(=O)O
inactive: dose: 50.0 mg/kg/injection, schedule: Q04DX003 (ip), vehicle: saline 96 % of control | dose: 100.0 mg/kg/injection, schedule: Q04DX003 (ip), vehicle: saline 123 % of control and 97 % of control | dose: 200.0 mg/kg/injection, schedule: Q04DX003 (ip), vehicle: saline 100 % of control | dose: 400.0 mg/kg/injection, schedule: Q04DX003 (ip), vehicle: saline 95 % of control

Clc1ccc(CN2COc3c(ccc4cccnc34)C2)c(Cl)c1
inactive: dose: 100.0 mg/kg/injection, schedule: Q04DX003 (ip), vehicle: Klucel (hydroxypropylcellulose) (HPC) 95 % of control | dose: 200.0 mg/kg/injection, schedule: Q04DX003 (ip), vehicle: Klucel (hydroxypropylcellulose) (HPC) 104 % of control | dose: 400.0 mg/kg/injection, schedule: Q04DX003 (ip), vehicle: Klucel (hydroxypropylcellulose) (HPC) 117 % of control

From PubChem BioAssay AID330 (DTP/NCI, 2004)
